Experimental data taken from patent US20190071490A1, “Preventing Post-Ictal Headaches” (Beth Israel Deaconess Medical Center, Inc., priority 2017, published 2019).

Test system: skin blood flow after saphenous nerve stimulation (CGRP release)
Assay: Skin vasodilatation induced by stimulation of rat saphenous nerve
Type: in vivo
Settings: 400 nmol/kg i.v., 3-5 minutes before stimulation, vs control
Procedure: To test antagonist activity of anti-CGRP antibodies, effect of the antibodies on skin vasodilatation by stimulation of rat saphenous nerve was tested using a rat model described previously. Escott et al., Br. J. Pharmacol. 110:772-776, 1993. In this rat model, electrical stimulation of saphenous nerve induces release of CGRP from nerve endings, resulting in an increase in skin blood flow. Blood flow in the foot skin of male Sprague Dawley rats (170-300 g, from Charles River Hollister) was measured after saphenous nerve stimulation. Rats were maintained under anesthesia with 2% isoflurane. Bretylium tosylate (30 mg/kg, administered i.v.) was given at the beginning of the experiment to minimize vasoconstriction due to the concomitant stimulation of sympathetic fibers of the saphenous nerve. […]
For experiments shown in FIGS. 2A and 2B, antibody 4901 (25 mg/kg), antibody 7D11 (25 mg/kg), or vehicle control (PBS with 0.01% Tween 20) was administered intraperitoneally (IP) 72 hours before the electrical pulse stimulation. […] Skin blood flow, measured as blood cell flux, was monitored with a laser Doppler flow meter. […]
For experiments shown in FIGS. 4A and 4B, saphenous nerve was exposed surgically before antibody administration. […] Skin blood flow, measured as blood cell flux, was monitored with a laser Doppler flow meter. […]

CGRP 8-37: Positive control compound CGRP 8-37 (vasodilatation antagonist)
blood flow increase stimulated by electronic pulses on saphenous nerve (AUC of blood cell flux): inhibited
